One data set concerns OVSAHO. Kind of data set: OVSAHO Cell Viability. The data set is classed as cell-based. The conditions noted are these: for OVSAHO Cell Viability (50 μM) % CD133 + % ctrl / OVSAHO Cell Viability (30 μM) % CD133 + % ctrl: CD133+ cells; for OVSAHO Cell Viability (50 μM) Total Cell % ctrl / OVSAHO Cell Viability (30 μM) Total Cell % ctrl: total cells.
A further data set deals with T1, ALDH1A2 (Homo sapiens, UniProt O94788).
T1 sequence (O94788 1-518): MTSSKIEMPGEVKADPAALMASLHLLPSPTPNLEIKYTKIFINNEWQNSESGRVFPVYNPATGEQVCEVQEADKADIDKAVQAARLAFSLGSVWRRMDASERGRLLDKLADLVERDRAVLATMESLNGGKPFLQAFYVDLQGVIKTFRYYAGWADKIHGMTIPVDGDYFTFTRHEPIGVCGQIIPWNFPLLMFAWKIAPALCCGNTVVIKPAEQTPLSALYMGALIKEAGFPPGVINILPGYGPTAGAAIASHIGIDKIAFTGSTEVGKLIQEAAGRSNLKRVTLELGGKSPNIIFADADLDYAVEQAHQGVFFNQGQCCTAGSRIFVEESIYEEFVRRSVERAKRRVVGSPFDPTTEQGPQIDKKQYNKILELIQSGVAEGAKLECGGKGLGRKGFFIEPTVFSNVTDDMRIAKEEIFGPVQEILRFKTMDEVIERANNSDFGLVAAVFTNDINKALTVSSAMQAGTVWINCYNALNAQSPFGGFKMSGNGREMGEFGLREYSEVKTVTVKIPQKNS
Description: Inhibition of ALDH isoenzymes (NAD(P)H formation at 340 nm, purified recombinant enzyme). As to conditions: for IC50: 100-200 nM enzyme, 200 μM NAD+, 100 μM propionaldehyde, pH 7.5, 25° C.; for remaining activity at 20 µM: compound at 20 μM, read-out: ALDH1A2 % Control at 20 μM. The class given is biochemical.

The target in a further data set is T2, ALDH1A3 (Homo sapiens, UniProt P47895).
T2 sequence (P47895 1-512): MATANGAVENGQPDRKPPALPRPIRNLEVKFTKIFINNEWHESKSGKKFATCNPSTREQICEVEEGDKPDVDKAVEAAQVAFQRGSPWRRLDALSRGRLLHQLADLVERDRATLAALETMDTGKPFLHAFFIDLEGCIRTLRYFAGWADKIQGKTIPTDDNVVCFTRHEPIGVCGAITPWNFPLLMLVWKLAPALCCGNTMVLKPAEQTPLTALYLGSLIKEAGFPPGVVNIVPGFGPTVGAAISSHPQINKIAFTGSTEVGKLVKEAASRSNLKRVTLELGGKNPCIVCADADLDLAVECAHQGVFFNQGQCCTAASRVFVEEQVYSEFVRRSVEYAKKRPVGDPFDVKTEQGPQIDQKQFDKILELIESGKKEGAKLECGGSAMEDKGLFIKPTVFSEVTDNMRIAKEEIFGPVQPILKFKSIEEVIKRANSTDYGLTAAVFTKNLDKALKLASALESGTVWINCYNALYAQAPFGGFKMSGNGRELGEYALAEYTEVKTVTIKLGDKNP
Described as above. The class given is biochemical. The conditions noted are these: for IC50: 100-200 nM enzyme, 200 μM NAD+, 100 μM propionaldehyde, pH 7.5, 25° C.; for remaining activity at 20 µM: compound at 20 μM, read-out: ALDH1A3 % Control at 20 μM.

For another data set, the target named is T3, ALDH1A1 (Homo sapiens, UniProt P00352).
T3 sequence (P00352 1-501): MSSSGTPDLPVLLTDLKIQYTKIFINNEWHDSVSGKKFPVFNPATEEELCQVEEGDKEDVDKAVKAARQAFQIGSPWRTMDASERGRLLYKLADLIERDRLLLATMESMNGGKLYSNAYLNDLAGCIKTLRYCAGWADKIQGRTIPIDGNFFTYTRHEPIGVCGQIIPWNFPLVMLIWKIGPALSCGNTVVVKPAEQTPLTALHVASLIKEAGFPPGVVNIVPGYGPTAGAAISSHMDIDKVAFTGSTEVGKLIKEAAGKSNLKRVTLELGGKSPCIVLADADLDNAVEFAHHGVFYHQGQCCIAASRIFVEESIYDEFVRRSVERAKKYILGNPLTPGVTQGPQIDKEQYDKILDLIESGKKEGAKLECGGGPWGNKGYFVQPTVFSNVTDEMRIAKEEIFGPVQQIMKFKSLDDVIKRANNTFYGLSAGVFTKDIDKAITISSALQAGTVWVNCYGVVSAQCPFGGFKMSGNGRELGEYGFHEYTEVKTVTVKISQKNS
The description is as above. The data set is classed as biochemical. As to conditions: for IC50: 100-200 nM enzyme, 200 μM NAD+, 100 μM propionaldehyde, pH 7.5, 25° C.; for remaining activity at 20 µM: compound at 20 μM, read-out: ALDH1A1 % Control at 20 μM.

The target of the next data set is T4, ALDH2 (Homo sapiens, UniProt P05091).
T4 sequence (P05091 18-517): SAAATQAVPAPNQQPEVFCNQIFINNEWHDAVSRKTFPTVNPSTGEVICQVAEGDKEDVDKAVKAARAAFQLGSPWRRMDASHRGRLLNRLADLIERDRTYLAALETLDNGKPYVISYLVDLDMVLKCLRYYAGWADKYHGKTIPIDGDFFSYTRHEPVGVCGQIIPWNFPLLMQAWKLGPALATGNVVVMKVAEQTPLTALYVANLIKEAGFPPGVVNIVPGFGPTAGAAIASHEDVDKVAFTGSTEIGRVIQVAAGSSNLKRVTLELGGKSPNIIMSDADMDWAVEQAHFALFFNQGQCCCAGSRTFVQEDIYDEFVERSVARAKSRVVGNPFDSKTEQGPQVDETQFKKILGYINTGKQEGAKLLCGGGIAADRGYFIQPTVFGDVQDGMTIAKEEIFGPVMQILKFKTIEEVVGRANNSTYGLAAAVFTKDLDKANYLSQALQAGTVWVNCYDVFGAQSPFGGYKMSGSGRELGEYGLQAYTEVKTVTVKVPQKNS
Described as above. The data set is classed as biochemical. More on the design: key to ALDH2 inhibition at 20 μM (N.I.): N.I.: No inhibition at 20 μM. As to conditions: compound at 20 μM; for remaining activity at 20 µM: read-out: ALDH2 % Control at 20 μM.

Each structure is given as a SMILES string. Structures can show the parent of a compound that is named as a salt.
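Throughout, for ALDH2 % Control at 20 μM: run at 25 °C, started by adding substrate after 2 min preincubation, with 100-200 nM ALDH2, 200 µM NAD+, 100 µM propionaldehyde, 1% DMSO in BES buffer pH 7.5.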
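Throughout, for ALDH2 inhibition at 20 μM (N.I.): run at 25 °C, started by adding substrate after 2 min preincubation, with 100-200 nM ALDH2, 200 µM NAD+, 100 µM propionaldehyde, 1% DMSO in BES buffer pH 7.5.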

Regarding `CCn1ncc2c(=O)n(-c3ccccc3)c(SCc3cccc(F)c3)nc21` [Example 14, 1-ethyl-6-((3-fluorobenzyl)thio)-5-phenyl-1H-pyrazolo[3,4-d]pyrimidin-4(5H)-one], the “OVSAHO Cell Viability (50 μM) % CD133 + % ctrl” value with OVSAHO is on record as 39 % ctrl. Moreover, the “OVSAHO Cell Viability (50 μM) Total Cell % ctrl” value in the data set on OVSAHO was 13 % ctrl. Besides, the half-inhibitory concentration (IC50) came to 400 nM at ALDH1A2, 250 nM at ALDH1A3 and 320 nM at ALDH1A1. Besides, the remaining activity at 20 µM at ALDH2 amounted to 82%.
As to `CCn1cc2c(=O)n(-c3ccccc3)c(SCc3cccc(F)c3)nc2n1` [Example 15, 2-ethyl-6-((3-fluorobenzyl)thio)-5-phenyl-2H-pyrazolo[3,4-d]pyrimidin-4(5H)-one], in the data set with OVSAHO, the “OVSAHO Cell Viability (50 μM) % CD133 + % ctrl” value was determined as 83 % ctrl. Further, the “OVSAHO Cell Viability (50 μM) Total Cell % ctrl” value in the data set with OVSAHO stood at 51 % ctrl. For the same compound, the IC50 stood at 600 nM on ALDH1A2, 153 nM at ALDH1A3 and 172 nM at ALDH1A1. For the same compound, the remaining activity at 20 µM at ALDH2 is 98%.
For `Cn1ncc2c(=O)n(-c3ccccc3O)c(SCc3cccc(F)c3)nc21` [Example 33, 6-((3-fluorobenzyl)thio)-5-(2-hydroxyphenyl)-1-methyl-1H-pyrazolo[3,4-d]pyrimidin-4(5H)-one], the “OVSAHO Cell Viability (50 μM) % CD133 + % ctrl” value with OVSAHO is 92 % ctrl. In addition, in the data set with OVSAHO, the “OVSAHO Cell Viability (50 μM) Total Cell % ctrl” value came out at 18 % ctrl. Moreover, the remaining activity at 20 µM turned out to be 92% on ALDH1A2, 100% at ALDH1A3 and 88% at ALDH2. The IC50 on ALDH1A1 stood at 4100 nM.
As for `CC(C)CCSc1nc2c(cnn2C)c(=O)n1-c1ccccc1` [Example 38, 6-(isopentylthio)-1-methyl-5-phenyl-1H-pyrazolo[3,4-d]pyrimidin-4(5H)-one], the “OVSAHO Cell Viability (50 μM) % CD133 + % ctrl” value in the data set with OVSAHO worked out at 50 % ctrl. Besides, the “OVSAHO Cell Viability (50 μM) Total Cell % ctrl” value in the data set with OVSAHO came to 39 % ctrl. For the same compound, the IC50 on ALDH1A2 is 940 nM; on ALDH1A3, 390 nM; on ALDH1A1 it was 1200 nM. Also, the remaining activity at 20 µM on ALDH2 amounted to 96%.
With `Cc1ccccc1-n1c(OCc2cc3ccccc3s2)nc2c(cnn2C)c1=O` [Example 40, 6-(benzo[b]thiophen-2-ylmethoxy)-1-methyl-5-(o-tolyl)-1H-pyrazolo[3,4-d]pyrimidin-4(5H)-one], the “OVSAHO Cell Viability (50 μM) % CD133 + % ctrl” value with OVSAHO is 50 % ctrl. Also, the “OVSAHO Cell Viability (50 μM) Total Cell % ctrl” value with OVSAHO turned out to be 15 % ctrl. Further, the IC50 was greater than 10000 nM on ALDH1A2, greater than 10000 nM at ALDH1A3 and 1700 nM on ALDH1A1. Further, at ALDH2, the “ALDH2 inhibition at 20 μM (N.I.)” value is recorded as “N.I”.
On to `Cn1ncc2c(=O)n(-c3ccccc3)c(SCc3cccc(C(=O)C(F)(F)F)c3)nc21` [Example 57, 1-methyl-5-phenyl-6-((3-(2,2,2-trifluoroacetyl)benzyl)thio)-1H-pyrazolo[3,4-d]pyrimidin-4(5H)-one], for which the “OVSAHO Cell Viability (30 μM) % CD133 + % ctrl” value in the data set with OVSAHO came to 84% ctrl. In addition, in the data set with OVSAHO, the “OVSAHO Cell Viability (30 μM) Total Cell % ctrl” value is recorded as 29% ctrl. Moreover, the IC50 is 1720 nM at ALDH1A2, 1750 nM at ALDH1A3 and 73 nM at ALDH1A1. For the same compound, on ALDH2, the remaining activity at 20 µM turned out to be 100%.
For the compound `O=c1c2cn(CC3COC3)nc2nc(OCc2cccc(F)c2)n1-c1ccccc1` [Example 63], in the data set on OVSAHO, the “OVSAHO Cell Viability (30 μM) % CD133 + % ctrl” value turned out to be 81% ctrl and the “OVSAHO Cell Viability (30 μM) Total Cell % ctrl” value is 18% ctrl. Also, the remaining activity at 5 µM at ALDH1A2 (compound at 5 μM (footnote *), read-out: ALDH1A2 % Control at 5 μM) came to 43%. The remaining activity at 5 µM at ALDH1A3 (compound at 5 μM (footnote *), read-out: ALDH1A3 % Control at 5 μM) worked out at 61%. Moreover, at ALDH1A1, the IC50 is 2280 nM. Further, at ALDH2, the remaining activity at 20 µM stood at 102%.
With `CC1(Cn2cc3c(=O)n(-c4ccccc4)c(SCc4cccc(F)c4)nc3n2)COC1` [Example 67, 6-((3-fluorobenzyl)thio)-2-((3-methyloxetan-3-yl)methyl)-5-phenyl-2H-pyrazolo[3,4-d]pyrimidin-4(5H)-one], the “OVSAHO Cell Viability (30 μM) % CD133 + % ctrl” value with OVSAHO is 100% ctrl. In addition, the “OVSAHO Cell Viability (30 μM) Total Cell % ctrl” value in the data set with OVSAHO was 16% ctrl. For the same compound, the remaining activity at 20 µM on ALDH1A2 came to 21%; at ALDH1A3, 4%; at ALDH1A1, 7%; at ALDH2, 97%.
For `O=c1c2cn(CC3CNC3)nc2nc(SCc2cccc(F)c2)n1-c1ccccc1` [Example 68, 3-((6-((3-fluorobenzyl)thio)-4-oxo-5-phenyl-4,5-dihydro-2H-pyrazolo[3,4-d]pyrimidin-2-yl)methyl)azetidin-1-ium sulfate], the “OVSAHO Cell Viability (30 μM) Total Cell % ctrl” value with OVSAHO is recorded as 16% ctrl. The remaining activity at 20 µM came to 14% on ALDH1A2, 10% at ALDH1A3, 14% on ALDH1A1 and 93% on ALDH2.
Regarding `C[C@H](Sc1nc2c(cnn2C)c(=O)n1-c1ccccc1)c1ccccc1` [Example 69, (S)-1-methyl-5-phenyl-6-((1-phenylethyl)thio)-1H-pyrazolo[3,4-d]pyrimidin-4(5H)-one], the “OVSAHO Cell Viability (30 μM) % CD133 + % ctrl” value in the data set with OVSAHO stood at 80% ctrl. Further, the “OVSAHO Cell Viability (30 μM) Total Cell % ctrl” value with OVSAHO stood at 25% ctrl. Also, the remaining activity at 20 µM was 19% on ALDH1A2, 9% on ALDH1A3, 18% on ALDH1A1 and 95% on ALDH2.
Turning to `CCC(Sc1nc2c(cnn2C)c(=O)n1-c1ccccc1)c1ccccc1` (centres unmarked) [Example 70, 1-methyl-5-phenyl-6-((1-phenylpropyl)thio)-1H-pyrazolo[3,4-d]pyrimidin-4(5H)-one], the “OVSAHO Cell Viability (30 μM) % CD133 + % ctrl” value in the data set on OVSAHO stood at 56% ctrl. The “OVSAHO Cell Viability (30 μM) Total Cell % ctrl” value in the data set on OVSAHO was 17% ctrl. Further, the remaining activity at 20 µM at ALDH1A2 was -14%; on ALDH1A3, -10%; at ALDH1A1, -5%; on ALDH2, 90%.

One may read the IC50 as the concentration that gives 50% inhibition.

These data come from patent US11944626B2, “Small molecule inhibitors of ALDH and uses thereof” (The Regents of the University of Michigan, priority 2016, dated 2024).
